This note sets out measurements from US20250042890A1, “METHIONINE ADENOSYLTRANSFERASE 2a (MAT2A) INHIBITORS AND USES THEREOF” (Insilico Medicine IP Limited, priority 2021, published 2025).

Structures are written as SMILES.

MAT2A, sequence (P31153 whole entry, species assumed): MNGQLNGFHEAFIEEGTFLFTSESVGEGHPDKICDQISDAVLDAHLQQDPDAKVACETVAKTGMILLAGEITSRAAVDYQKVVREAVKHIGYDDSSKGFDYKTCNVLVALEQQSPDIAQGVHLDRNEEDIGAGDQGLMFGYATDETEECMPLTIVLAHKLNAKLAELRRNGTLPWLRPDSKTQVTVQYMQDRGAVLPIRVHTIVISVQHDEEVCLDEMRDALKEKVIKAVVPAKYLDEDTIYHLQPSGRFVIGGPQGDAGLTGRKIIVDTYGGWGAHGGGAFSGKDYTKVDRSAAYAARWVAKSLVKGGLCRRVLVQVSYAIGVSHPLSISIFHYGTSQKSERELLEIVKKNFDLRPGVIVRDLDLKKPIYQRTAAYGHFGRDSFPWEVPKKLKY

This assay has as its target MAT2A (Homo sapiens (Human), UniProt P31153). The experiment in a line: MAT2A Biochemical Assay. Particulars: Biomol Green readout O.D.620; 1 uM start, 3-fold dilution, 10 doses; read-out: MAT2A enzymatic IC50. Here is the method:
Example A: MAT2A Biochemical Assay
Compounds described herein were tested as follows:
• (1). Prepared 1×Assay buffer. • (2). Preparation of compound concentration gradient: the compounds test condition were 1 uM start, 3-fold dilution, 10 doses, singlet or duplicate. 100× concentration compounds were prepared in 384-well plate. Then used Echo 550 to transfer 250 nl to a 384-reaction plate for later use. Added 250 nl of 100% DMSO to the negative and positive control wells. • (3). Prepared 1.67× final concentration enzyme solution with 1×Assay buffer. • (4). Added 15 μl of 1.67× Enzyme solution to the compound wells and positive control wells; added 15 μl of 1 Assay buffer to the negative control wells. • (5). Centrifuged at 1000 rpm for 30 seconds and incubate for 15 minutes. • (6). Prepared 2.5× final concentration Substrate mix solution with 1×Assay buffer. • (7). Added 10 μl of 2.5× final concentration Substrate mix solution to start the reaction. • (8). Centrifuged at 1000 rpm for 30 seconds and incubate for 150 minutes. • (9). Added 50 μl Biomol Green to stop the reaction, centrifuge at 1000 rpm for 30 seconds and incubate for 15 minutes. read O.D.620, process data.
• (1) Using GraphPad Prism 5. • (2) % Inh=(Max signal−Compound signal)/(Max signal−Min signal)*100. • (3) Max signal was obtained from the positive control wells. • (4) Min signal was obtained from the negative control wells.
One may read the IC50 as the concentration that gives 50% inhibition. Turning to `C#CCNc1nc(=O)n(-c2cccnc2)c2cc(Cl)ccc12` [Example 1, 7-chloro-4-(prop-2-yn-1-ylamino)-1-(pyridin-3-yl)quinazolin-2 (1H)-one], the IC50 was less than 0.05 µM.

On to `O=c1nc(NCC#CC2CC2)c2ccc(Cl)cc2n1-c1cccnc1` [Example 2, 7-chloro-4-((3-cyclopropylprop-2-yn-1-yl)amino)-1-(pyridin-3-yl)quinazolin-2 (1H)-one], for which the half-inhibitory concentration (IC50) was less than 0.05 µM.

Take `C#CC1(Nc2nc(=O)n(-c3cccnc3)c3cc(Cl)ccc23)CC1` [Example 4]: the IC50 was less than 0.05 µM.

In the case of `C=CCNc1nc(=O)n(-c2cccnc2)c2cc(Cl)ccc12` [Example 5, 4-(allylamino)-7-chloro-1-(pyridin-3-yl)quinazolin-2 (1H)-one], the 50% inhibitory concentration (IC50) was less than 0.05 µM.

In the case of `C#CCCCNc1nc(=O)n(-c2cccnc2)c2cc(Cl)ccc12` [Example 6, 7-chloro-4-(pent-4-yn-1-ylamino)-1-(pyridin-3-yl)quinazolin-2 (1H)-one], the half-maximal inhibitory concentration (IC50) is less than 0.05 µM.

Consider `C#CCNc1nc(=O)n(-c2cccnc2)c2cc(C(F)(F)F)ccc12` [Example 7, 4-(prop-2-yn-1-ylamino)-1-(pyridin-3-yl)-7-(trifluoromethyl)quinazolin-2 (1H)-one], for which the IC50 was less than 0.05 µM.

`C#CCCNc1nc(=O)n(-c2ccccc2Cl)c2cc(Cl)ccc12` [Example 8, 4-(but-3-yn-1-ylamino)-7-chloro-1-(2-chlorophenyl)quinazolin-2 (1H)-one]: the IC50 is less than 0.05 µM.

For `C#CCNc1nc(=O)n(-c2ccccc2Cl)c2cc(Cl)ccc12` [Example 10, 7-chloro-1-(2-chlorophenyl)-4-(prop-2-yn-1-ylamino)quinazolin-2 (1H)-one], the IC50 is less than 0.05 µM.

In the case of `C#CC1CCN(c2nc(=O)n(-c3ccccc3Cl)c3cc(Cl)ccc23)CC1` [Example 13, 7-chloro-1-(2-chlorophenyl)-4-(4-ethynylpiperidin-1-yl)quinazolin-2 (1H)-one], the IC50 was greater than 1 µM.

For the molecule `O=c1nc(NCC#CCN2CCOCC2)c2ccc(C(F)(F)F)cc2n1-c1cccnc1` [Example 14, 4-((4-morpholinobut-2-yn-1-yl)amino)-1-(pyridin-3-yl)-7-(trifluoromethyl)quinazolin-2 (1H)-one], the IC50 was less than 0.05 µM.

In the case of `C#CCNc1nc(=O)n(-c2cccnc2C)c2cc(Cl)ccc12` [Example 15, 7-chloro-1-(2-methylpyridin-3-yl)-4-(prop-2-yn-1-ylamino)quinazolin-2 (1H1)-one], the IC50 is less than 0.05 µM.

For `C#CC1(Nc2nc(=O)n(-c3cccnc3C)c3cc(Cl)ccc23)CC1` [Example 16, 7-chloro-4-((1-ethynylcyclopropyl)amino)-1-(2-methylpyridin-3-yl)quinazolin-2 (1H)-one], the IC50 is less than 0.05 µM.

On to `C#CCNc1nc(=O)n(-c2cnccn2)c2cc(Cl)ccc12` [Example 17, 7-chloro-4-(prop-2-yn-1-ylamino)-1-(pyrazin-2-yl)quinazolin-2 (1H)-one], for which the IC50 is less than 0.05 µM.

Consider `C#CCNc1nc(=O)n(-c2cccnc2)c2cc(Br)ccc12` [Example 18, 7-bromo-4-(prop-2-yn-1-ylamino)-1-(pyridin-3-yl)quinazolin-2 (1H)-one], for which the IC50 is less than 0.05 µM.

Consider `C#CCNc1nc(=O)n(-c2cccnc2C)c2cc(Br)cc(OC)c12` [Example 19, 7-bromo-5-methoxy-1-(2-methylpyridin-3-yl)-4-(prop-2-yn-1-ylamino)quinazolin-2 (1H)-one], for which the IC50 is less than 0.05 µM.

In the case of `C#CCNc1nc(=O)n(-c2cccnc2)c2cc(Cl)cc(OC)c12` [Example 20, 7-chloro-5-methoxy-4-(prop-2-yn-1-ylamino)-1-(pyridin-3-yl)quinazolin-2 (1H)-one], the 50% inhibitory concentration (IC50) is less than 0.05 µM.

`C#CCNc1nc(=O)n(-c2cnccn2)c2cc(Cl)cc(OC)c12` [Example 21, 7-chloro-5-methoxy-4-(prop-2-yn-1-ylamino)-1-(pyrazin-2-yl)quinazolin-2 (1H)-one]: the IC50 was less than 0.05 µM.

In the case of `C#CCNc1nc(=O)n(-c2cccnc2C)c2cc(Cl)cc(OC)c12` [Example 22, 7-chloro-5-methoxy-1-(2-methylpyridin-3-yl)-4-(prop-2-yn-1-ylamino)quinazolin-2 (1H)-one], the half-inhibitory concentration (IC50) is less than 0.05 µM.

`C#CCNc1nc(=O)n(-c2nccnc2C)c2cc(Cl)cc(OC)c12` [Example 23, 7-chloro-5-methoxy-1-(3-methylpyrazin-2-yl)-4-(prop-2-yn-1-ylamino)quinazolin-2 (1H)-one]: the IC50 is less than 0.05 µM.

For the molecule `C#CC1(Nc2nc(=O)n(-c3cnccn3)c3cc(Cl)cc(OC)c23)CC1` [Example 24, 7-chloro-4-((1-ethynylcyclopropyl)amino)-5-methoxy-1-(pyrazin-2-yl)quinazolin-2 (1H)-one], the half-inhibitory concentration (IC50) was less than 0.05 µM.

Consider `C#CC1(Nc2nc(=O)n(-c3nccnc3C)c3cc(Cl)cc(OC)c23)CC1` [Example 25, 7-chloro-4-((1-ethynylcyclopropyl)amino)-5-methoxy-1-(3-methylpyrazin-2-yl)quinazolin-2 (1H)-one], for which the half-maximal inhibitory concentration (IC50) is less than 0.05 µM.

With `C#CC(C)Nc1nc(=O)n(-c2cccnc2C)c2cc(Cl)cc(OC)c12` (stereo not shown) [Example 26], the IC50 was less than 0.05 µM.

For `C#CC1(Nc2nc(=O)n(-c3cccnc3C)c3cc(Cl)cc(OC)c23)CC1` [Example 27, 7-chloro-4-((1-ethynylcyclopropyl)amino)-5-methoxy-1-(2-methylpyridin-3-yl)quinazolin-2 (11H)-one], the half-maximal inhibitory concentration (IC50) was less than 0.05 µM.

Take `C#CC1(Nc2nc(=O)n(-c3cccnc3C)c3cc(Cl)cc(OC)c23)CCC1` [Example 28]: the IC50 was less than 0.05 µM.

For the molecule `C#CCNc1nc(=O)n(-c2cccnc2)c2cc(Cl)cc(F)c12` [Example 29, 7-chloro-5-fluoro-4-(prop-2-yn-1-ylamino)-1-(pyridin-3-yl)quinazolin-2 (1H)-one], the IC50 was less than 0.05 µM.

Turning to `C#CCNc1nc(=O)n(-c2cccnc2C)c2cc(Cl)cc(F)c12` [Example 30, 7-chloro-5-fluoro-1-(2-methylpyridin-3-yl)-4-(prop-2-yn-1-ylamino)quinazolin-2 (1H)-one], the 50% inhibitory concentration (IC50) was less than 0.05 µM.

Consider `C#CC1(Nc2nc(=O)n(-c3cccnc3C)c3cc(Cl)cc(F)c23)CC1` [Example 31, 7-chloro-4-((1-ethynylcyclopropyl)amino)-5-fluoro-1-(2-methylpyridin-3-yl)quinazolin-2 (11H)-one], for which the IC50 is less than 0.05 µM.

`C#CCNc1nc(=O)n(-c2cccnc2C)c2cc(C(F)(F)F)ccc12` [Example 33, 1-(2-methylpyridin-3-yl)-4-(prop-2-yn-1-ylamino)-7-(trifluoromethyl)quinazolin-2 (1H)-one]: the IC50 was less than 0.05 µM.

With `C#CCNc1nc(=O)n(-c2cccnc2)c2cc(C(F)(F)F)cc(OC)c12` [Example 34, 5-methoxy-4-(prop-2-yn-1-ylamino)-1-(pyridin-3-yl)-7-(trifluoromethyl)quinazolin-2 (1H)-one], the IC50 is less than 0.05 µM.

On to `C#CC(C)Nc1nc(=O)n(-c2cccnc2)c2cc(C(F)(F)F)cc(OC)c12` (stereo not shown) [Example 35, 4-(but-3-yn-2-ylamino)-5-methoxy-1-(pyridin-3-yl)-7-(trifluoromethyl)quinazolin-2 (1H)-one], for which the IC50 is less than 0.05 µM.

On to `C#CCNc1nc(=O)n(-c2cccnc2C)c2cc(C(F)(F)F)cc(OC)c12` [Example 36, 5-methoxy-1-(2-methylpyridin-3-yl)-4-(prop-2-yn-1-ylamino)-7-(trifluoromethyl)quinazolin-2 (1H)-one], for which the half-maximal inhibitory concentration (IC50) is less than 0.05 µM.

For the molecule `C#CC(C)Nc1nc(=O)n(-c2cccnc2C)c2cc(C(F)(F)F)cc(OC)c12` (stereo not shown) [Example 37], the IC50 was less than 0.05 µM.

On to `C#CCNc1nc(=O)n(-c2cccnc2)c2cc(C(F)(F)F)cc(OCF)c12` [Example 38, 5-(fluoromethoxy)-4-(prop-2-yn-1-ylamino)-1-(pyridin-3-yl)-7-(trifluoromethyl)quinazolin-2 (1H)-one], for which the 50% inhibitory concentration (IC50) is less than 0.05 µM.

In the case of `C#CCNc1nc(=O)n(-c2cccnc2C)c2cc(C(F)(F)F)cc(OC(F)F)c12` [Example 40, 5-(difluoromethoxy)-1-(2-methylpyridin-3-yl)-4-(prop-2-yn-1-ylamino)-7-(trifluoromethyl)quinazolin-2 (1l)-one], the IC50 is less than 0.05 µM.

Consider `C#CCNc1nc(=O)n(-c2cccnc2C)c2nc(C(F)(F)F)cc(OC)c12` [Example 42, 5-methoxy-1-(2-methylpyridin-3-yl)-4-(prop-2-yn-1-ylamino)-7-(trifluoromethyl)pyrido[2,3-d]pyrimidin-2 (1H)-one], for which the 50% inhibitory concentration (IC50) is less than 0.05 µM.

For the molecule `C#CCNc1nc(=O)n(-c2cccnc2C(C)C)c2cc(C(F)(F)F)ccc12` [Example 45, 1-(2-isopropylpyridin-3-yl)-4-(prop-2-yn-1-ylamino)-7-(trifluoromethyl)quinazolin-2 (1H)-one], the 50% inhibitory concentration (IC50) is less than 0.05 µM.

In the case of `C#CC1(Nc2nc(=O)n(-c3cccnc3C)c3cc(C(F)(F)F)ccc23)CC1` [Example 46, 4-((1-ethynylcyclopropyl)amino)-1-(2-methylpyridin-3-yl)-7-(trifluoromethyl)quinazolin-2 (1H)-one], the half-maximal inhibitory concentration (IC50) is less than 0.05 µM.
